{"source": "paper PMC10609081", "about": "“In Vivo Trafficking of the Anticancer Drug Tris(8-Quinolinolato) Gallium (III) (KP46) by Gallium-68/67 PET/SPECT Imaging” (Molecules, 2023)", "key": {"[1]": {"experiment": "Distribution/partition coefficients (logD, logP), shake flask with gamma counting", "type": "physicochemical", "conditions": "tracer level, mean ± SD", "experimental": "Tracer-level [^68Ga]KP46 and [^68Ga]Ga-acetate solutions (5–20 µL, 0.3–0.5 MBq) were added to a pre-equilibrated mixture (500 µL/500 µL) of octanol/water (for logP measurement) or octanol/PBS (for logD7.4 measurement). Samples were vortexed for two minutes in a Multi Vortex Mixer V-32 (Grant Bio). From each layer, a sample of 200 µL was taken and its radioactivity measured using a gamma counter."}, "[2]": {"test_system": "A375 (human melanoma) cells", "experiment": "Cellular uptake of radiogallium in cultured A375 cells", "type": "cell-based", "conditions": "1 h", "experimental": "One million A375 (human melanoma) cells were suspended in 0.5 mL of Dulbecco’s Modified Eagle’s Medium (500 mL DMEM, low-glucose medium with 50 mL 10% FBS, 5 mL of L-glutamine, and 5 mL of penicillin and streptomycin) in 1.5 mL Eppendorf tubes. An amount of 10 µL of no-carrier-added [^68Ga]KP46 or [^68Ga]gallium acetate was added to the cell suspensions (giving a ^68Ga concentration of ca. 20 pM) and to similar tubes containing medium but no cells (to check and compensate for adhesion of radioactivity to tubes). Samples were incubated for 60 min at 37 °C under 5% CO2 and then centrifuged (Sci Spin Mini) for three minutes at 1500 RPM. The supernatants were transferred to fresh Eppendorf tubes. The pellets were washed twice with 0.5 mL PBS, following the same centrifugation protocol, and washes were added to the supernatant tubes. Supernatants and cell pellets were measured using a gamma counter to determine the average activity in cell pellets as a % of the total activity for each sample. The intracellular-to-extracellular ^68Ga concentration ratio was also estimated by correcting for the different volume of supernatant and cell pellet using an estimated spherical cell diameter of 17.5 μm, which leads to an estimated volume of the cell pellet (10^6 cells) of 2.8 μL."}, "[3]": {"experiment": "Ex vivo biodistribution 2 h after intravenous injection, nu/nu mice bearing A375 xenografts", "type": "in vivo", "conditions": "i.v., tracer level", "experimental": "Figure S8. Ex vivo biodistribution of [ Ga]KP46 (tracer level) in nu/nu mice bearing A375 xenografts at two hours post i.v. injection via tail vein. […] Values are […]\nexpressed as mean ± SD (n = 3). (See below for methods)\nMethodology for ex vivo biodistribution 2 h after intravenous injection of [68Ga]KP46 Mice were intravenously injected with tracer level [68Ga]KP46 and culled two hours post injection for organ harvesting and gamma counting. Consistent with the data shown in the main manuscript for 4 […]\n[68Ga]KP46. Activity was also observed in the kidneys (30%ID/g for both kidneys) and urine, indicating excretion through urinary system. Significant activity was also seen in the lungs, heart, and small intestine (14.3 ± 0.6, 12.6 ± 1.7 and 12 ± 2.6 %ID/g, respectively), with minimal activity accumulating in the tumour (3.4 ± 0.4%ID/g) (Figure S8). […]"}, "[4]": {"molecular_target": "T1, human serum albumin (HSA) (Homo sapiens, UniProt P02768)", "T1 construct": "purchased Sigma Aldrich", "T1 sequence (P02768 25-609)": "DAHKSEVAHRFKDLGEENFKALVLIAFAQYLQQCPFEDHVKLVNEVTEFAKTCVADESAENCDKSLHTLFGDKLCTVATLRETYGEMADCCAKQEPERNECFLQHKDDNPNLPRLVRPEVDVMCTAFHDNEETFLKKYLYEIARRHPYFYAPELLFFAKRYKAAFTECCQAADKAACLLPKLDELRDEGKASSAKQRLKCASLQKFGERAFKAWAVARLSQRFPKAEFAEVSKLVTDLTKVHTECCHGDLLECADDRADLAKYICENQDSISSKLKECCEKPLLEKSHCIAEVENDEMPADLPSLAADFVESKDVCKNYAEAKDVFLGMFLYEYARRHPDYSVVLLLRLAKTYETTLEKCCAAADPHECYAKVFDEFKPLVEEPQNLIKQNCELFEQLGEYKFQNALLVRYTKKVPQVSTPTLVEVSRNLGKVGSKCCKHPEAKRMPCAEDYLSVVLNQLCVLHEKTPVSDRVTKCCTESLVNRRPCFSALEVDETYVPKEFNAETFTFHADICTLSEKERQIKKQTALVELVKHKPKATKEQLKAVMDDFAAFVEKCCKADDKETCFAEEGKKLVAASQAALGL", "experiment": "Binding to human serum albumin by size exclusion chromatography (PD MidiTrap G-25)", "type": "in vitro ADME", "experimental": "Solutions of human apo-transferrin (apo-Tf, 2 mg/mL) and human serum albumin (HSA, 50 mg/mL) (both purchased from Sigma Aldrich) were dissolved in aqueous NaHCO3 (5 mM, pH = 8) and PBS (pH = 7.4), respectively. An amount of 1 MBq of tracer-level [^68Ga]KP46 (13–20 µL) or [^68Ga]gallium acetate (20–25 µL) was added to 1.2 mL of the apo-Tf solution and to a similar apo-Tf-free NaHCO3 solution (control). Similarly, [^68Ga]KP46 and [^68Ga]gallium acetate solutions were added to 1.5 mL PBS containing HSA or HSA-free PBS (control). The samples were incubated for 60 min at 37 °C (pH = 7–7.5). From each mixture, 0.5 mL was loaded into PD MidiTrap G-25 size exclusion chromatography cartridges that were preconditioned with 8 mL of NaHCO3 (5 mM) (for apo-Tf binding) or PBS (for HSA binding). Fractions (0.5 mL) were collected and counted with a Wallac gamma counter. Protein absorbance at 280 nm was measured using a Nanodrop spectrophotometer. To investigate the speciation of the Ga–KP46 complex in the presence of apo-Tf at later time points (up to 48 h), the experiment was repeated with ^67Ga."}}, "data": [{"smiles": "[68Ga+3].[O-]c1cccc2cccnc12.[O-]c1cccc2cccnc12.[O-]c1cccc2cccnc12", "note": "[[^68Ga]KP46]", "values": [{"measurement": "logD(octanol/PBS)", "setting": "[1]; octanol/PBS", "value": "1.90 ± 0.19"}, {"measurement": "logP(octanol/water)", "setting": "[1]; octanol/water", "value": "2.33 ± 0.28"}, {"measurement": "cellular uptake (% radioactivity added, corrected for nonspecific binding to vessel)", "setting": "[2]; DMEM containing FBS, n = 3", "value": "2.55% ± 1%"}, {"measurement": "intracellular-to-extracellular concentration ratio", "setting": "[2]; corrected data, estimated cell pellet volume 2.8 μL", "value": "14 ± 6"}, {"measurement": "activity in kidneys, ex vivo", "setting": "[3]; both kidneys", "value": 30, "unit": "%ID/g"}, {"measurement": "activity in heart, ex vivo", "setting": "[3]; n = 3", "value": "12.6 ± 1.7", "unit": "%ID/g"}, {"measurement": "activity in liver, ex vivo", "setting": "[3]; n = 3", "value": "31.4 ± 3.8", "unit": "%ID/g"}, {"measurement": "activity in lungs, ex vivo", "setting": "[3]; n = 3", "value": "14.3 ± 0.6", "unit": "%ID/g"}, {"measurement": "activity in small intestine, ex vivo", "setting": "[3]; n = 3", "value": "12 ± 2.6", "unit": "%ID/g"}, {"measurement": "activity in tumour, ex vivo", "setting": "[3]; n = 3", "value": "3.4 ± 0.4", "unit": "%ID/g"}, {"measurement": "radioactivity coeluting with HSA", "setting": "[4]; 1 h incubation at 37 °C, HSA 50 mg/mL in PBS", "value": "about 16%"}, {"measurement": "binding of radioactivity to HSA", "setting": "[4]; incubated 1 h with HSA", "value": "significant binding"}]}]}
